Measurements: ChEMBL document CHEMBL3774354, “Discovery of Selective Histone Deacetylase 6 Inhibitors Using the Quinazoline as the Cap for the Treatment of Cancer” (J Med Chem, 2016)
Each block holds one molecule with its values, some of them ahead of it. The source made the active and inactive calls. The rule behind the calls is not given here.

How the values were obtained:
Mus musculus [1] = test: Toxicity in NOD/SCID mouse xenografted with human MV4-11 cells assessed as death at 50 mg/kg, ip q2d for 12 days; type: organism-based; details: in vivo, 288 h
MV4-11 [2] = test: Antitumor activity against human MV4-11 cells xenografted in NOD/SCID mouse assessed as tumor mass change at 50 mg/kg, ip q2d for 12 days; type: functional
[3] = Antitumor activity against human HCT116 cells xenografted in Balb/c nude mouse assessed as tumor mass change at 100 mg/kg, po q2d for 8 days; type: functional, HCT-116
Mus musculus [4] = test: Toxicity in Balb/c nude mouse xenografted with human HCT116 cells assessed as change in body weight at 50 mg/kg, ip q2d for 9 days; type: organism-based, HCT-116; details: in vivo, 216 h
Mus musculus [5] = test: Toxicity in Balb/c nude mouse xenografted with human HCT116 cells assessed as death at 100 mg/kg, po q2d for 8 days; type: organism-based, HCT-116; details: in vivo, 192 h
[6] = Antitumor activity against human HCT116 cells xenografted in Balb/c nude mouse assessed as tumor mass change at 50 mg/kg, ip q2d for 9 days; type: functional, HCT-116
Mus musculus [7] = test: Toxicity in Balb/c nude mouse xenografted with human HCT116 cells assessed as change in body weight at 100 mg/kg, po q2d for 8 days; type: organism-based, HCT-116; details: in vivo, 192 h
Mus musculus [8] = test: Toxicity in Balb/c nude mouse xenografted with human HCT116 cells assessed as death at 50 mg/kg, ip q2d for 9 days; type: organism-based, HCT-116; details: in vivo, 216 h
Histone deacetylase 1 = Histone deacetylase 1 (Homo sapiens, UniProt Q13547)
Description: Inhibition of human recombinant HDAC1 using AMC labeled AC-peptide as substrate incubated for 1 hr by fluorescence analysis

[9] = Cytotoxicity against human HCT116 cells after 72 hrs by MTT assay; type: functional, cell-based; details: HCT-116, 72 h
HT-29 = test: Cytotoxicity against human HT-29 cells after 72 hrs by MTT assay; type: functional, cell-based; details: HT-29, 72 h
[10] = target: T1, Protein deacetylase HDAC6 (Homo sapiens) (UniProt Q9UBN7); test: Inhibition of HDAC6 in human MV4-11 cells assessed as upregulation of alpha- tubulin acetylation after 6 hrs by Western blot analysis; type: cell-based
T1 sequence (whole entry): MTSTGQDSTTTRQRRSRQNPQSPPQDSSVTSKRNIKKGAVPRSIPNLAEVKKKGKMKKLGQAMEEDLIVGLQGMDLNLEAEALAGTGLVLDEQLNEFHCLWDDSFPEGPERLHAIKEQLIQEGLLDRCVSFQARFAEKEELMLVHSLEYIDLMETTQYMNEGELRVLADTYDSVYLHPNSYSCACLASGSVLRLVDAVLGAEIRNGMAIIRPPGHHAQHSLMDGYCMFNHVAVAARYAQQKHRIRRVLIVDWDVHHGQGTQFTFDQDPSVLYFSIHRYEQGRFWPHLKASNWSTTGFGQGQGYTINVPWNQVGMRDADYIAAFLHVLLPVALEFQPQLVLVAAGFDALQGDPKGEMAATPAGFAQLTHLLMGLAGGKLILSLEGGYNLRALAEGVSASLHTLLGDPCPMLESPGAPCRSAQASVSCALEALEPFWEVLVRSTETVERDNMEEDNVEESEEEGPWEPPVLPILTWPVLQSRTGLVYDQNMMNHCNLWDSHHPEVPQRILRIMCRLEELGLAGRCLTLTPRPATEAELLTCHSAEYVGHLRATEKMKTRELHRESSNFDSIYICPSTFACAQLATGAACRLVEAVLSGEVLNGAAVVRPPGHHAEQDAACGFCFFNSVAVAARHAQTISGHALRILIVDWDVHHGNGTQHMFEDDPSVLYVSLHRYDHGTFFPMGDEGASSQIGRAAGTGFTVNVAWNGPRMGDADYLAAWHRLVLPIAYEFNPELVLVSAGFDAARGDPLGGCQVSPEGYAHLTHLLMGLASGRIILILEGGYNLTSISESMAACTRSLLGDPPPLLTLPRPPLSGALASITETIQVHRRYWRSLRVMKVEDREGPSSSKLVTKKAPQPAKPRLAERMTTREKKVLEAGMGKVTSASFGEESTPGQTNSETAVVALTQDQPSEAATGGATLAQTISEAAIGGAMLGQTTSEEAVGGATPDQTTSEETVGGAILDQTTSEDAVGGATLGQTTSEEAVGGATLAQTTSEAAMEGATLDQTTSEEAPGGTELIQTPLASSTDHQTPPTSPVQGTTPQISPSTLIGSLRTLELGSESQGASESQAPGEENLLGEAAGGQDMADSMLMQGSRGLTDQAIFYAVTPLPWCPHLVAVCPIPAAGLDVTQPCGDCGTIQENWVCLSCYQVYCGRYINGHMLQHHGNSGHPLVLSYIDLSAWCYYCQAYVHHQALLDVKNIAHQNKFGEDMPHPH

K562 = test: Cytotoxicity against human K562 cells after 72 hrs by MTT assay; type: functional, cell-based; details: K562, 72 h
[11] = Cytotoxicity against human SKBR3 cells after 72 hrs by MTT assay; type: functional, cell-based; details: SK-BR-3, 72 h
[12] = target: Histone deacetylase 11 (Homo sapiens) (UniProt Q96DB2); test: Inhibition of recombinant HDAC11 (unknown origin) using AMC labeled AC-peptide as substrate at 10 uM incubated for 1 hr by fluorescence analysis
HeLa [13] = test: Antiproliferative activity against human HeLa cells after 72 hrs by MTT assay; type: functional, cell-based
[14] = target: Histone deacetylase 7 (Homo sapiens) (UniProt Q8WUI4); test: Inhibition of recombinant HDAC7 (unknown origin) using AMC labeled AC-peptide as substrate at 10 uM incubated for 1 hr by fluorescence analysis
HepG2 = test: Cytotoxicity against human HepG2 cells after 72 hrs by MTT assay; type: functional, cell-based; details: HepG2, 72 h
A549 = test: Cytotoxicity against human A549 cells after 72 hrs by MTT assay; type: functional, cell-based; details: A549, 72 h
[15] = Cytotoxicity against human RPMI8226 cells after 72 hrs by MTT assay; type: functional, cell-based; details: RPMI-8226, 72 h
[16] = Cytotoxicity against human U266 cells after 72 hrs by MTT assay; type: functional, cell-based; details: U-266, 72 h
MV4-11 [17] = test: Cytotoxicity against human MV4-11 cells after 72 hrs by MTT assay; type: functional, cell-based; details: MV4-11, 72 h
A2780 = test: Cytotoxicity against human A2780 cells after 72 hrs by MTT assay; type: functional, cell-based; details: A2780, 72 h
[18] = target: T1, Protein deacetylase HDAC6 (Homo sapiens); test: Inhibition of HDAC6 in human HCT116 cells assessed as upregulation of alpha- tubulin acetylation after 6 hrs by Western blot analysis; type: cell-based; details: HCT-116
Histone deacetylase 5 = Histone deacetylase 5 (Homo sapiens, UniProt Q9UQL6); test: Inhibition of recombinant HDAC5 (unknown origin) using AMC labeled AC-peptide as substrate at 10 uM incubated for 1 hr by fluorescence analysis
Histone deacetylase 9 = Histone deacetylase 9 (Homo sapiens, UniProt Q9UKV0); test: Inhibition of recombinant HDAC9 (unknown origin) using AMC labeled AC-peptide as substrate at 10 uM incubated for 1 hr by fluorescence analysis
[19] = Cytotoxicity against human H460 cells after 72 hrs by MTT assay; type: functional, cell-based; details: NCI-H460, 72 h
[20] = target: Histone deacetylase 1/2/3 (Homo sapiens) (UniProt Q13547+O15379+Q92769); details: MV4-11, 1000 nM
Description: Inhibition of HDAC1/2/3 in human MV4-11 cells assessed as upregulation of histone H3 acetylation at 1000 nM after 6 hrs by Western blot analysis

Ramos = test: Cytotoxicity against human Ramos cells after 72 hrs by MTT assay; type: functional, cell-based
[21] = Cytotoxicity against human SKOV3 cells after 72 hrs by MTT assay; type: functional, cell-based; details: SK-OV-3, 72 h
Mus musculus [22] = test: Toxicity in NOD/SCID mouse xenografted with human Ramos cells assessed as death at 40 mg/kg, po q2d for 6 days; type: organism-based; details: in vivo, 144 h
[23] = target: T2, Protein deacetylase HDAC6 (Homo sapiens, UniProt Q9UBN7)
T2 sequence (Q9UBN7 whole entry): T1 sequence (whole entry)
Description: Inhibition of human recombinant HDAC6 using AMC labeled AC-peptide as substrate incubated for 1 hr by fluorescence analysis

Histone deacetylase 8 = target: T3, Histone deacetylase 8 (Homo sapiens, UniProt Q9BY41)
T3 sequence (Q9BY41 whole entry): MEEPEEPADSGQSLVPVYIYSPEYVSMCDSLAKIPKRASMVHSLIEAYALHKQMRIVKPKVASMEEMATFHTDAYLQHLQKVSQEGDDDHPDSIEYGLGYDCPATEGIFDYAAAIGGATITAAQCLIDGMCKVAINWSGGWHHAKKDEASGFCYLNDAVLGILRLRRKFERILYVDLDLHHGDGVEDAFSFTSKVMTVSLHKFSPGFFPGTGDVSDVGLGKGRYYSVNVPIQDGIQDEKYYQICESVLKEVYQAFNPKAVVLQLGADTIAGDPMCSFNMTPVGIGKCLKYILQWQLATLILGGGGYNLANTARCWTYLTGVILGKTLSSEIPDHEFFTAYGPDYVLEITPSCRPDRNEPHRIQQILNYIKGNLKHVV
Description: Inhibition of human recombinant HDAC8 using AMC labeled AC-peptide as substrate incubated for 1 hr by fluorescence analysis

A-375 = test: Antiproliferative activity against human A375 cells after 72 hrs by MTT assay; type: functional, cell-based; details: A-375, 72 h
HeLa [24] = test: Induction of histone H3 acetylation in human HeLa cells incubated for 6 hrs by cytoblot assay; type: functional, cell-based
[25] = target: T2, Protein deacetylase HDAC6; test: Inhibition of HDAC6 in human HeLa cells assessed as induction of tubulin acetylation incubated for 6 hrs by cytoblot assay; type: cell-based

Sequence of Histone deacetylase 1 (Q13547 whole entry): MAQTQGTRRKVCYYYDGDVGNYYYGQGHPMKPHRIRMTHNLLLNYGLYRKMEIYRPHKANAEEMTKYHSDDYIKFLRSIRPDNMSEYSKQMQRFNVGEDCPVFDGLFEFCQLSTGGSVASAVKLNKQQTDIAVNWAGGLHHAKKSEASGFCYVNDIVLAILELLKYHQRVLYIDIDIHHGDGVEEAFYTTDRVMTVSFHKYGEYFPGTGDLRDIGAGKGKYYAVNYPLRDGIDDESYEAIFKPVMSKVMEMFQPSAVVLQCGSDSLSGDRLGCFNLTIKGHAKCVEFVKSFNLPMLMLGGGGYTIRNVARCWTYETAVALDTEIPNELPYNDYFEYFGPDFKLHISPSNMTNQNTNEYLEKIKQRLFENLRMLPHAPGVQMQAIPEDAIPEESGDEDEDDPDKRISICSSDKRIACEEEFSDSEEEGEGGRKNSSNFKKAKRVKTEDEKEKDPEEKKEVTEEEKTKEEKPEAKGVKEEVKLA
Sequence of Histone deacetylase 7 (Homo sapiens) (Q8WUI4 whole entry): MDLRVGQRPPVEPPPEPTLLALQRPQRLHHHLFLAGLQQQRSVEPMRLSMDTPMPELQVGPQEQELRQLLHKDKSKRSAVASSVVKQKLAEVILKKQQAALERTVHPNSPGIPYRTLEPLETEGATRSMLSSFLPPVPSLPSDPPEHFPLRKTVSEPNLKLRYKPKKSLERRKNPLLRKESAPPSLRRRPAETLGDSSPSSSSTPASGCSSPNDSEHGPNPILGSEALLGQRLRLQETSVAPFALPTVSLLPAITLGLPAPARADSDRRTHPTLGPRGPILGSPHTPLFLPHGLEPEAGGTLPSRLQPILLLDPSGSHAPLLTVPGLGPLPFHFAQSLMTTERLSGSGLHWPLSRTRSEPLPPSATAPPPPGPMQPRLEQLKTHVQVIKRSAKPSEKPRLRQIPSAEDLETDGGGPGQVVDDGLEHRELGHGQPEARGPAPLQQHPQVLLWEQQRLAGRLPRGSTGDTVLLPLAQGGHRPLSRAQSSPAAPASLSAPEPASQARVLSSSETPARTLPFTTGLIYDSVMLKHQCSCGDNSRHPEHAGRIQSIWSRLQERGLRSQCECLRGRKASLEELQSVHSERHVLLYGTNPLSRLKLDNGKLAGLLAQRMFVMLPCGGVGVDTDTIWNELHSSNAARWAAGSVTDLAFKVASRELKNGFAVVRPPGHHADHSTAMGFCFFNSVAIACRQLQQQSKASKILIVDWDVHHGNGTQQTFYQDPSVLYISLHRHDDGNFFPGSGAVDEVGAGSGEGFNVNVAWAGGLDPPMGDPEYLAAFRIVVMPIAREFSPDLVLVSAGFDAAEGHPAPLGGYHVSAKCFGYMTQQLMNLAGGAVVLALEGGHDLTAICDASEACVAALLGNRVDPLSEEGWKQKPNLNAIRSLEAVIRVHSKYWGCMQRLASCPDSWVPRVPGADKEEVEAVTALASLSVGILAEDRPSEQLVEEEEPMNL
Sequence of Histone deacetylase 11 (Homo sapiens) (Q96DB2 whole entry): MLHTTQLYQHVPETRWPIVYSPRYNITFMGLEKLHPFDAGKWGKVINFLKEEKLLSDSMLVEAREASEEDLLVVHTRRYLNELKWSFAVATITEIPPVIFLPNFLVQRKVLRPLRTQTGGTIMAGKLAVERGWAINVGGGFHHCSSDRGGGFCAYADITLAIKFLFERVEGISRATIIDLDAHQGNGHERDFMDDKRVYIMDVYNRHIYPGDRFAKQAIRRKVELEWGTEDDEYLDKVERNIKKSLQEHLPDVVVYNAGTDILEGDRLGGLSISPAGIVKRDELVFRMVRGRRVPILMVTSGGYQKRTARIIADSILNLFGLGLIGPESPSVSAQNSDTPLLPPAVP
Sequence of Histone deacetylase 5 (Q9UQL6 whole entry): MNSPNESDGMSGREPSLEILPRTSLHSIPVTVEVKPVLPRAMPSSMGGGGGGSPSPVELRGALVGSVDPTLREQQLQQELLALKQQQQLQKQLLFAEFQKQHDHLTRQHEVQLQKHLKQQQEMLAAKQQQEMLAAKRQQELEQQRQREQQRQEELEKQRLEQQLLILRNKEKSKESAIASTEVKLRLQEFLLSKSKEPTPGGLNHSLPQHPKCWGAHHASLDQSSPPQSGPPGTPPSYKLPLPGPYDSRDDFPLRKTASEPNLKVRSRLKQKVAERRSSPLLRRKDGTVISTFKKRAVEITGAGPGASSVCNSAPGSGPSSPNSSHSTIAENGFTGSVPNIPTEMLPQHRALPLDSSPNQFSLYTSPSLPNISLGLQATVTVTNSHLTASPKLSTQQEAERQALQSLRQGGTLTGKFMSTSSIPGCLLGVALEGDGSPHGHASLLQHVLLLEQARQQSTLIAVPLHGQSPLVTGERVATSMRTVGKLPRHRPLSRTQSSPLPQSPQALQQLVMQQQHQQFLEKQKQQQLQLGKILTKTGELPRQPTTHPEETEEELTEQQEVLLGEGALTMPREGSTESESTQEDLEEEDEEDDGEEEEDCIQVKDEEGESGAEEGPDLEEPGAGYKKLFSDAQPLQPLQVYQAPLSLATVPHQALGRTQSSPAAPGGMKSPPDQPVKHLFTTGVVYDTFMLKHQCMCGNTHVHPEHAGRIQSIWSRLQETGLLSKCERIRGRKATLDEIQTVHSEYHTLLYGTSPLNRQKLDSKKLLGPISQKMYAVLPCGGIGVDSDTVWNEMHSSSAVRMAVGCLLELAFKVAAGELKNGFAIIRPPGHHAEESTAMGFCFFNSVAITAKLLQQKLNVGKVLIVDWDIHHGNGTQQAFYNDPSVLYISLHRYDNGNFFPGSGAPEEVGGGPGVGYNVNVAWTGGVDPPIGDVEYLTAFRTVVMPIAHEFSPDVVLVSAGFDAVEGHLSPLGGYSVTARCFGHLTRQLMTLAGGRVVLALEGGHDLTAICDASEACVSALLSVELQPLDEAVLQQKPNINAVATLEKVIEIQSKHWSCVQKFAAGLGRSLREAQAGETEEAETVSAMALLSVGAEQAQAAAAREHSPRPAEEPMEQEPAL
Sequence of Histone deacetylase 9 (Q9UKV0 whole entry): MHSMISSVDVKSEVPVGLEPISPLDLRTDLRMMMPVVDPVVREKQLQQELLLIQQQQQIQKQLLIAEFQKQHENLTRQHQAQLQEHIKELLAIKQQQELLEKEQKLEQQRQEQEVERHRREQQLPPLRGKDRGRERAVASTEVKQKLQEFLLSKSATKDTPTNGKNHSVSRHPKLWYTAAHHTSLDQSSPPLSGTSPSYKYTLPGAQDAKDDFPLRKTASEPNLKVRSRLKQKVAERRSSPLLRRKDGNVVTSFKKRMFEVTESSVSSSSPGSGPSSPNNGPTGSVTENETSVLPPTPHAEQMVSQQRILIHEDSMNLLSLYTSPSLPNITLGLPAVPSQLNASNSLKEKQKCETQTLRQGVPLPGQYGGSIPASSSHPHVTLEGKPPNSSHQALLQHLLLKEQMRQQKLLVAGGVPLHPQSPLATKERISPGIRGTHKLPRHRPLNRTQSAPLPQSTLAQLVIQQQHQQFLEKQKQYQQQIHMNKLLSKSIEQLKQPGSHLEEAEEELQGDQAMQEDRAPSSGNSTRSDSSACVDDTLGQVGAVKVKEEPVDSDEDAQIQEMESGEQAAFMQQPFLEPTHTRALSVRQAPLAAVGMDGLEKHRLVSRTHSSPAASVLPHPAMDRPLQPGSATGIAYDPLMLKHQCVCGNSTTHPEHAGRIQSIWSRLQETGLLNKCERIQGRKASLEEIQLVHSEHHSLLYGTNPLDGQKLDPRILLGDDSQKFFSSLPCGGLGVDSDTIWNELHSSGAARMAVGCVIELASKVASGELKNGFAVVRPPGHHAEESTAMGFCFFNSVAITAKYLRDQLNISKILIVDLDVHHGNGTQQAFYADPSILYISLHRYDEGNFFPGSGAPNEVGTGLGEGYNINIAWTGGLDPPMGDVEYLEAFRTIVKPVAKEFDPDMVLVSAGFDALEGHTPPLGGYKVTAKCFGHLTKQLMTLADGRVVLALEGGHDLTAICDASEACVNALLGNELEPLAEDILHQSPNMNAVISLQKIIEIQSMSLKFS

SMILES: O=C(CCCCCCC(=O)Nc1ccccc1)NO [VORINOSTAT]
Activity (Mus musculus [1]): Non-toxic
Activity (MV4-11 [2]): 0%
Activity [3]: 59.2%
Activity (Mus musculus [4]): -3%
Activity (Mus musculus [5]): Non-toxic
Activity [6]: 36.6%
Activity (Mus musculus [7]): -6.1%
Activity (Mus musculus [8]): Non-toxic

SMILES: O=C(CCCCCCNC(=O)c1cnc(N(c2ccccc2)c2ccccc2)nc1)NO [RICOLINOSTAT]
IC50 [9]: > 5 µM
IC50 (HT-29): > 5 µM
inhibition [10]: Dose-dependent effect
IC50 (K562): > 5 µM
IC50 [11]: > 5 µM
inhibition [12]: inactive
IC50 (HeLa [13]): > 5 µM
inhibition [14]: inactive
IC50 (HepG2): > 5 µM
IC50 (A549): > 5 µM
IC50 [15]: 1.47 µM
IC50 [16]: > 5 µM
IC50 (MV4-11 [17]): > 5 µM
IC50 (A2780): > 5 µM
inhibition [18]: Dose-dependent effect
inhibition (Histone deacetylase 5): inactive
inhibition (Histone deacetylase 9): inactive
IC50 [19]: > 5 µM
inhibition [20]: Active
IC50 (Ramos): > 5 µM
IC50 [21]: > 5 µM
Activity (Mus musculus [22]): Non-toxic

SMILES: CN(c1ccc(OCC(=O)NO)cc1)c1ncnc2ccccc12
IC50 (A-375): 0.432 µM
IC50 (Histone deacetylase 1): 0.242 µM
IC50 (HeLa [13]): 0.379 µM
EC50 (HeLa [24]): 1.26 µM
IC50 [23]: 0.014 µM
EC50 [25]: 0.0494 µM
IC50 (Histone deacetylase 8): 1.42 µM

SMILES: COc1ccc(Nc2nc(C)nc3ccccc23)cc1OCCCC(=O)NO
IC50 (Histone deacetylase 1): > 1 µM
IC50 [23]: > 1 µM
IC50 (Histone deacetylase 8): > 1 µM

SMILES: Cc1nc2c(c(N(C)c3ccc(OCCCCC(=O)NO)cc3)n1)CCC2
IC50 (Histone deacetylase 1): 0.212 µM
IC50 [23]: 0.063 µM
IC50 (Histone deacetylase 8): 1.99 µM

SMILES: Cc1nc(N(C)c2cccc(OCCCC(=O)NO)c2)c2ccccc2n1
IC50 (Histone deacetylase 1): > 1 µM
IC50 [23]: > 1 µM
IC50 (Histone deacetylase 8): > 1 µM

More lines, in order of falling IC50 (Histone deacetylase 1), values ahead:

IC50 (Histone deacetylase 1): 0.204 µM
SMILES: Cc1nc(N(C)c2ccc(OCCCCC(=O)NO)cc2)c2ccccc2n1

IC50 (Histone deacetylase 1): 0.195 µM
IC50 [23]: 0.04 µM
IC50 (Histone deacetylase 8): 6.19 µM
SMILES: Cc1nc2c(c(N(C)c3ccc(OCCCC(=O)NO)cc3)n1)CCC2

IC50 (Histone deacetylase 1): 0.12 µM
IC50 [23]: 0.02 µM
IC50 (Histone deacetylase 8): 1 µM
SMILES: Cc1nc2c(c(N(C)c3ccc(OCCCCCC(=O)NO)cc3)n1)CCC2
